The values below come from publication PMC8318231, “Rate-of-Kill (RoK) assays to triage large compound sets for Chagas disease drug discovery: Application to GSK Chagas Box” (PLoS Neglected Tropical Diseases, 2021).

This experiment relates to T. cruzi intracellular amastigotes in H9c2 cells. Kind of experiment: Rate-of-Kill (RoK) high-content imaging assay, amastigotes per cell (AM/CELL) and curve descriptors. The format is cell-based, Trypanosoma cruzi. The arrangement: key to ME_24h / ME_48h / ME_72h: % reduction in parasite burden (cidal response); t50pct_MCC50 / t50pct_Cmax: unit not given here. As to conditions: for ME_24h: 24h; for ME_48h: 48h; for ME_72h: 72h; for AM/CELL NORM: sheet figure 4 A; for t50%_Cmax / tlag_Cmax / t50pct_Cmax: at Cmax; for ME_24h (%): maximum effect at 24 h; for ME_24h (%) / ME_48h (%) / ME_72h (%): RoK assay; for ME_48h (%): maximum effect at 48 h; for ME_72h (%): maximum effect at 72 h; for ME 24h (maximum effect at 24 hours, intracellular amastigotes): maximum percentage of parasite burden reduction reached by any concentration. A digest of the protocol:
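Readouts at each time point are amastigotes per cell and host nuclei count (cytotoxicity), from DRAQ5 high-content imaging. Infection: trypomastigotes on H9c2 at MOI 8 for 18 h. Dosing was 5 μM single point or 11 points, 1/3 steps from 50 μM. Effect scaled between 4 h infected and uninfected controls.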

For `CCN(CC)S(=O)(=O)c1ccc(C(=O)Nc2cc(C)nn2-c2nc(C)c(C)c(=O)[nH]2)cc1` [TCMDC-143273], the “t50%_Cmax” value is 72.0 h, the “tlag_Cmax” value was determined as 24.0 h, the “ME_24h (%)” value is recorded as -21.3% and the “ME_48h (%)” value was 17.6%. For the same molecule, the “ME_72h (%)” value came to 21.9% and the “ME 24h (maximum effect at 24 hours, intracellular amastigotes)” value (shortened to “ME 24h”) was 4.663%. For the setting “figure 5”, this molecule showed an ME_24h of -21.3076, an ME_48h of 17.6407, an ME_72h of 21.9061 and a t50pct_Cmax of 72. For the setting “figure 5”, this molecule showed a tlag_Cmax of 24 and an MCCE of 0.6173. Further, for the setting “RoK curve descriptor”, the “MCC50” value stood at 1.9 µM and the “MCCE” value amounted to 0.6 µM. Moreover, the “AM/CELL NORM” value (Time 4) was -1.286. Moreover, the “AM/CELL NORM” value (Time 24) is reported as -40.8598. The “AM/CELL NORM” value (Time 48) was 1.208. The “AM/CELL NORM” value (Time 72) is reported as 53.2799. Besides, where the note is “at MCC50”, the “t50%_MCC50” value worked out at 72.0 h and the “tlag_MCC50” value was 4.0 h. Also, for the setting “at MCC50, figure 5”, the t50pct_MCC50 was 72 and the tlag_MCC50 is on record as 38. The MCC50 (figure 5, in µM) was 25.9259.
On to `COc1ccc(C(C)(C)C)cc1S(=O)(=O)n1ccnc1` [TCMDC-143275], for which the “tlag_Cmax” value was 48.0 h, the “ME_24h (%)” value is -36.0%, the “ME_48h (%)” value is -75.3% and the “ME_72h (%)” value worked out at 19.9%. Also, the “ME 24h” value is listed as -36.0217%. Where the note is “figure 5”, this molecule showed an ME_24h of -36.0217, an ME_48h of -75.3113, an ME_72h of 19.8776 and a t50pct_Cmax of 72. Further, under “figure 5”, the tlag_Cmax was 48, the MCC50 is 50 µM and the MCCE is given as 0.2058. Moreover, the “MCCE” value (RoK curve descriptor) stood at 0.2 µM. Further, where the note is “Time 4”, the “AM/CELL NORM” value worked out at 7.308. Moreover, the “AM/CELL NORM” value (Time 24) is listed as -56.5644. Also, the “AM/CELL NORM” value (Time 48) is reported as -75.3113. In addition, the “AM/CELL NORM” value (Time 72) was -31.1405. Under “at MCC50, figure 5”, this molecule showed a t50pct_MCC50 of 72 and a tlag_MCC50 of 72.
Regarding `CCCn1c(NC(=O)Cc2ccc(Cl)cc2)nc2ccccc21` [TCMDC-143279], the “tlag_Cmax” value came to 38.0 h, the “ME_24h (%)” value is on record as -55.8%, the “ME_48h (%)” value is reported as -85.8% and the “ME_72h (%)” value is -269.6%. For the same molecule, the “ME 24h” value is reported as 3.26%. Under “figure 5”, the ME_24h is -55.8269, the ME_48h is -85.7556, the ME_72h is recorded as -269.589 and the t50pct_Cmax worked out at 72. For the setting “figure 5”, this molecule registered a tlag_Cmax of 38 and an MCCE of 9.259. In addition, for the setting “RoK curve descriptor”, the “MCC50” value is 5.6 µM and the “MCCE” value is given as 9.3 µM. Further, the “AM/CELL NORM” value (Time 4) is given as 0.2091. For the same molecule, the “AM/CELL NORM” value (Time 24) is -159.496. Further, the “AM/CELL NORM” value (Time 48) is on record as -347.093. Further, the “AM/CELL NORM” value (Time 72) is -621.538. In addition, where the note is “at MCC50”, the “t50%_MCC50” value was 48.0 h and the “tlag_MCC50” value amounted to 24.0 h. For the setting “at MCC50, figure 5”, the t50pct_MCC50 is given as 60 and the tlag_MCC50 is reported as 48. The molecule also displayed an MCC50 (figure 5, in µM) of 27.7778.
Turning to `CCC(=O)Nc1ccc(C(=O)Nc2ccccc2-c2ccccc2)cc1` [TCMDC-143286], the “t50%_Cmax” value stood at 24.0 h, the “tlag_Cmax” value was found to be 4.0 h, the “ME_24h (%)” value was 59.9% and the “ME_48h (%)” value amounted to 81.1%. Further, the “ME_72h (%)” value came to 89.3% and the “ME 24h” value is 59.883%. In addition, where the note is “figure 5”, the ME_24h is given as 59.883, the ME_48h is on record as 81.1358, the ME_72h is given as 89.3246 and the t50pct_Cmax is 24. Under “figure 5”, this molecule registered a tlag_Cmax of 4 and an MCCE of 0.6173. In addition, under “RoK curve descriptor”, the “MCC50” value was determined as 1.9 µM and the “MCCE” value is recorded as 0.6 µM. Besides, the “AM/CELL NORM” value (Time 4) stood at 27.4861. Further, the “AM/CELL NORM” value (Time 24) was 59.883. In addition, the “AM/CELL NORM” value (Time 48) is recorded as 81.1358. Where the note is “Time 72”, the “AM/CELL NORM” value came out at 89.3246. Also, where the note is “at MCC50”, the “t50%_MCC50” value amounted to 48.0 h and the “tlag_MCC50” value is 4.0 h. Under “at MCC50, figure 5”, this molecule yielded a t50pct_MCC50 of 48 and a tlag_MCC50 of 4. Under “figure 5, in µM”, the MCC50 amounted to 1.852.
For the molecule `Cc1cccnc1CN1CCN(CCCOc2ccc(-c3ccc(C(N)=O)cc3)cc2)CC1` [TCMDC-143291], the “tlag_Cmax” value worked out at 48.0 h, the “ME_24h (%)” value was -149.2%, the “ME_48h (%)” value is -419.0% and the “ME_72h (%)” value is on record as -404.0%. In addition, the “ME 24h” value is given as -41.6178%. In addition, for the setting “figure 5”, the ME_24h is given as -149.164, the ME_48h is -418.951, the ME_72h is -403.993 and the t50pct_Cmax worked out at 72. In addition, under “figure 5”, the tlag_Cmax came out at 48, the MCC50 was found to be 50 µM and the MCCE came out at 16.6667. The “MCCE” value (RoK curve descriptor) is given as 16.7 µM. The “AM/CELL NORM” value (Time 4) is given as 9.834. Besides, the “AM/CELL NORM” value (Time 24) is listed as -41.6178. Besides, for the setting “Time 48”, the “AM/CELL NORM” value is -122.335. Besides, the “AM/CELL NORM” value (Time 72) is on record as -107.466. Where the note is “at MCC50, figure 5”, this molecule displayed a t50pct_MCC50 of 72 and a tlag_MCC50 of 72.
As to `COc1ccc(C(C)N(C)c2ncc3c(N)nc(N)nc3n2)cc1F` (stereo not drawn) [TCMDC-143298], the “MCC and MCCE values (in words)” value was “low MCC and MCCE values”; the “ME (maximum effect) in RoK assay (in words)” value is “high ME value”; the tlag times was found to be 4 h; the “t50%_Cmax” value is 64.0 h. Also, the “tlag_Cmax” value was found to be 4.0 h, the “ME_24h (%)” value was determined as 43.3%, the “ME_48h (%)” value is on record as 65.5% and the “ME_72h (%)” value was 72.5%. Further, the “ME 24h” value was 45.8485%. In addition, where the note is “figure 5”, the ME_24h is 43.2682, the ME_48h came out at 65.4547, the ME_72h was 72.4604 and the t50pct_Cmax is 64. Under “figure 5”, the tlag_Cmax is recorded as 4, the MCC50 was 1.44 µM and the MCCE came to 0.16. Further, where the note is “RoK curve descriptor”, the “MCC50” value worked out at 1.4 µM and the “MCCE” value is recorded as 0.16 µM. The “AM/CELL NORM” value (Time 4) is 12.1557. For the same molecule, the “AM/CELL NORM” value (Time 24) amounted to 34.3534. Also, the “AM/CELL NORM” value (Time 48) was 59.1852. Under “Time 72”, the “AM/CELL NORM” value was 72.1771. Under “at MCC50”, the “t50%_MCC50” value amounted to 56.0 h and the “tlag_MCC50” value is 4.0 h. Under “at MCC50, figure 5”, the t50pct_MCC50 is given as 56 and the tlag_MCC50 was 4.
In the case of `O=C(NCc1ccncc1)c1ccccc1N1CCCN(C(=O)Cc2ccc(F)c(F)c2)CC1.O=C(O)C(F)(F)F.O=C(O)C(F)(F)F` [TCMDC-143300], the “tlag_Cmax” value turned out to be 24.0 h, the “ME_24h (%)” value is listed as -279.1%, the “ME_48h (%)” value is recorded as -72.6% and the “ME_72h (%)” value was 30.6%. In addition, the “ME 24h” value is listed as -279.048%. Where the note is “figure 5”, this molecule had an ME_24h of -279.048, an ME_48h of -72.5657, an ME_72h of 30.5548 and a t50pct_Cmax of 72. For the same molecule, under “figure 5”, the tlag_Cmax came out at 24, the MCC50 amounted to 50 µM and the MCCE is listed as 0.06859. In addition, where the note is “RoK curve descriptor”, the “MCCE” value came to 0.07 µM. Also, the “AM/CELL NORM” value (Time 4) is recorded as -9.816. Further, under “Time 24”, the “AM/CELL NORM” value is -279.048. Moreover, where the note is “Time 48”, the “AM/CELL NORM” value is -94.5412. Besides, the “AM/CELL NORM” value (Time 72) is 9.95. For the setting “at MCC50, figure 5”, this molecule came in with a t50pct_MCC50 of 72 and a tlag_MCC50 of 72.
With `O=C(O)C(F)(F)F.O=c1ccc2ccc(F)c3c2n1C[C@H]3CN1CCC(NCc2cc3ccccc3o2)CC1` [TCMDC-143301], the “tlag_Cmax” value was 4.0 h, the “ME_24h (%)” value amounted to 27.0%, the “ME_48h (%)” value is reported as 43.1% and the “ME_72h (%)” value amounted to 49.5%. The “ME 24h” value is on record as 26.9481%. Where the note is “figure 5”, the ME_24h was 26.9481, the ME_48h amounted to 43.1407, the ME_72h is 49.4796 and the t50pct_Cmax is given as 72. Also, for the setting “figure 5”, the tlag_Cmax is 4, the MCC50 was 50 µM and the MCCE came to 0.2058. Also, the “MCCE” value (RoK curve descriptor) is on record as 0.2 µM. Moreover, where the note is “Time 4”, the “AM/CELL NORM” value was determined as 0.9981. The “AM/CELL NORM” value (Time 24) was determined as 26.9481. Besides, under “Time 48”, the “AM/CELL NORM” value was 43.1407. In addition, the “AM/CELL NORM” value (Time 72) was 49.4796. Further, under “at MCC50, figure 5”, the t50pct_MCC50 was 72 and the tlag_MCC50 turned out to be 72.
Consider `CS(=O)(=O)NC1CCC(Oc2cc3cnccc3cc2-c2ccsc2)CC1.O=C(O)C(F)(F)F` (stereo not drawn) [TCMDC-143302], for which the “tlag_Cmax” value was found to be 4.0 h, the “ME_24h (%)” value worked out at 1.0%, the “ME_48h (%)” value worked out at 27.0% and the “ME_72h (%)” value was found to be 21.6%. Further, the “ME 24h” value worked out at 1.036%. For the setting “figure 5”, this molecule showed an ME_24h of 1.036, an ME_48h of 27.0388, an ME_72h of 21.5908 and a t50pct_Cmax of 72. Under “figure 5”, the tlag_Cmax was found to be 4, the MCC50 is 50 µM and the MCCE is 0.6173. Moreover, the “MCCE” value (RoK curve descriptor) is 0.6 µM. Also, the “AM/CELL NORM” value (Time 4) is given as -2.284. Further, the “AM/CELL NORM” value (Time 24) is reported as 1.036. Further, the “AM/CELL NORM” value (Time 48) was found to be 27.0388. For the setting “Time 72”, the “AM/CELL NORM” value is recorded as -4.309. For the setting “at MCC50, figure 5”, this molecule registered a t50pct_MCC50 of 72 and a tlag_MCC50 of 72.
